In US20180214428A1, “3-(1H-INDOL-2-YL)-1H-PYRAZOLO[3,4-B]PYRIDINES AND THERAPEUTIC USES THEREOF” (Samumed, LLC, priority 2015, published 2018):

Experiments:
[1] = tested on: primary human fibroblasts derived from IPF patients (LL29 cells); assay: Inhibition of the fibrotic process: αSMA staining in TGF-β1 treated LL29 fibroblasts; format: cell-based; details: Homo sapiens, Fibroblast; for EC50: 96 h, TGF-β1 20 ng/mL, 4 days, % αSMA positive cells; for inhibition at 10 µM: given for EC50 of >10 μM, TGF-β1, αSMA, read-out: percent inhibition at 10 μM
Outline: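 IPF patient-derived LL29 fibroblasts in 1% FBS medium got compound (11-point, 10 μM to 1.87 nM, 0.1% DMSO) plus TGF-β1 20 ng/mL, 4 days at 37° C. αSMA-positive live cells (SYTOX-excluded) were imaged, normalized to TGF-β1 controls and fitted for EC50; % inhibition at 10 μM given when EC50 >10 μM.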

IL-6 = IL-6 inhibition in LPS-stimulated THP-1 monocytes (HTRF); format: cell-based, human; details: Homo sapiens, THP-1 cells; for EC50: 500 ng/mL LPS, 22 h, HTRF IL-6 readout, 10-point dose-response from 10 μM; for inhibition at 10 µM: LPS stimulated, given only where EC50 >10 μM, top concentration 10 μM, read-out: percentage in parentheses beside EC50 >10 (IL-6 inhibition)
Outline: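 THP-1 cells serum-reduced (1% FBS, 24 h), then 5000 cells/well preincubated 2 h with compound (10-point 1:3 series from 10 μM, 0.1% DMSO) before 500 ng/mL LPS for 22 h at 37 °C. Secreted IL-6 quantified by HTRF 665/620 ratio; DMSO-normalised duplicates fitted to four-parameter EC50; above 10 μM, % inhibition at 10 μM given.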

SW480 colon cancer cells = assay: Cell viability assay (CellTiter-Blue) in SW480 colon cancer cells; format: cell-based, human; details: Homo sapiens; for EC50: 96 h, four days, CellTiter-Blue; for inhibition at 10 µM: given for EC50 of >10 μM, read-out: percent inhibition at 10 μM
Outline: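 SW480 cells (~2×10^3 per well) were exposed to compound for four days at 37 °C/5% CO2, using 8-point 1:3 dilutions from 10 μM to 0.0045 μM in duplicate. Viability was read by resazurin reduction (CellTiter-Blue, ~3 h, Ex 560/Em 590 nm). EC50 came from non-linear regression; above 10 μM, percent inhibition at 10 μM is given.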

Compound | EC50 [1] | EC50 (IL-6) | inhibition at 10 µM (IL-6) | EC50 (SW480 colon cancer cells) | inhibition at 10 µM (SW480 colon cancer cells) | inhibition at 10 µM [1]
Fc1cccc(-c2cccc3[nH]c(-c4n[nH]c5ncc(-c6ccncc6)cc45)cc23)c1 [Compound 15, 3-(4-(3-Fluorophenyl)-1H-indol-2-yl)-5-(pyridin-4-yl)-1H-pyrazolo[3,4-b]pyridine] | 1700 nM | > 10000 nM | 55.9% | > 10000 nM | 31.5% | 
O=C(Nc1cncc(-c2cnc3[nH]nc(-c4cc5c(-c6ccc(F)cc6)cccc5[nH]4)c3c2)c1)C1CCC1 [Compound 41, N-(5-(3-(4-(4-Fluorophenyl)-1H-indol-2-yl)-1H-pyrazolo[3,4-b]pyridin-5-yl)pyridin-3-yl)cyclobutanecarboxamide] | 1160 nM | > 10000 nM | 10.7% | 5100 nM |  | 
FC1(F)CCN(Cc2cncc(-c3cnc4[nH]nc(-c5cc6c(-c7ccncc7)cccc6[nH]5)c4c3)c2)C1 [Compound 118, 5-(5-((3,3-Difluoropyrrolidin-1-yl)methyl)pyridin-3-yl)-3-(4-(pyridin-4-yl)-1H-indol-2-yl)-1H-pyrazolo[3,4-b]pyridine] | 760 nM | 607 nM |  | 4140 nM |  | 
Cc1ccncc1-c1cnc2[nH]nc(-c3cc4c(-c5ccc(F)cc5)cccc4[nH]3)c2c1 [Compound 27, 3-(4-(4-Fluorophenyl)-1H-indol-2-yl)-5-(4-methylpyridin-3-yl)-1H-pyrazolo[3,4-b]pyridine] | 1610 nM | > 10000 nM | 41.7% | > 10000 nM | 13.9% | 
CCCCC(=O)Nc1cncc(-c2cnc3[nH]nc(-c4cc5c(N6CCCCC6)cccc5[nH]4)c3c2)c1 [Compound 163, N-(5-(3-(4-(Piperidin-1-yl)-1H-indol-2-yl)-1H-pyrazolo[3,4-b]pyridin-5-yl)pyridin-3-yl)pentanamide] | 8110 nM | > 10000 nM | 43.2% | > 10000 nM | 38% | 
O=C(CC1CCNCC1)Nc1cncc(-c2cnc3[nH]nc(-c4cc5c(-c6ccccn6)cccc5[nH]4)c3c2)c1 [Compound 595, 2-(Piperidin-4-yl)-N-(5-(3-(4-(pyridin-2-yl)-1H-indol-2-yl)-1H-pyrazolo[3,4-b]pyridin-5-yl)pyridin-3-yl)acetamide] | 5610 nM | 247 nM |  | > 10000 nM | 11.3% | 
CC(C)(C)CC(=O)Nc1cncc(-c2cnc3[nH]nc(-c4cc5ccccc5[nH]4)c3c2)c1 [Compound 242, N-(5-(3-(1H-Indol-2-yl)-1H-pyrazolo[3,4-b]pyridin-5-yl)pyridin-3-yl)-3,3-dimethylbutanamide] | > 10000 nM | 303 nM |  | > 10000 nM | 14.3% | 0%
CN(C)CCNc1cc(F)cc(-c2cccc3[nH]c(-c4n[nH]c5ncc(-c6cncc(N)c6)cc45)cc23)c1 [Compound 425, N^1-(3-(2-(5-(5-Aminopyridin-3-yl)-1H-pyrazolo[3,4-b]pyridin-3-yl)-1H-indol-4-yl)-5-fluorophenyl)-N^2,N^2-dimethylethane-1,2-diamine] | 332 nM | 92 nM |  | 527 nM |  | 
Fc1ccc(-c2cccc3[nH]c(-c4n[nH]c5ncc(-c6cncc(CN7CCCC7)c6)cc45)cc23)cc1 [Compound 35, 3-(4-(4-Fluorophenyl)-1H-indol-2-yl)-5-(5-(pyrrolidin-1-ylmethyl)pyridin-3-yl)-1H-pyrazolo[3,4-b]pyridine] | 2350 nM | 212 nM |  | 4820 nM |  | 
O=C(Nc1cncc(-c2cnc3[nH]nc(-c4cc5ccccc5[nH]4)c3c2)c1)C1CCCCC1 [Compound 249, N-(5-(3-(1H-Indol-2-yl)-1H-pyrazolo[3,4-b]pyridin-5-yl)pyridin-3-yl) cyclohexanecarboxamide] | > 10000 nM | > 10000 nM | 14.2% | > 10000 nM | 6.7% | 0%
O=C(Nc1cncc(-c2cnc3[nH]nc(-c4cc5c(-c6ccc(F)cc6)cccc5[nH]4)c3c2)c1)c1ccccc1 [Compound 32, N-(5-(3-(4-(4-Fluorophenyl)-1H-indol-2-yl)-1H-pyrazolo[3,4-b]pyridin-5-yl)pyridin-3-yl)benzamide] | 4950 nM | > 10000 nM | 17.7% | > 10000 nM | 32.5% | 
Cc1ncc(-c2cnc3[nH]nc(-c4cc5ccccc5[nH]4)c3c2)n1C [Compound 655, 5-(1,2-Dimethyl-1H-imidazol-5-yl)-3-(1H-indol-2-yl)-1H-pyrazolo[3,4-b]pyridine] | 3880 nM | 4350 nM |  | 3720 nM |  | 
Oc1cncc(-c2cnc3[nH]nc(-c4cc5c(-c6cccs6)cccc5[nH]4)c3c2)c1 [Compound 711, 5-(3-(4-(Thiophen-2-yl)-1H-indol-2-yl)-1H-pyrazolo[3,4-b]pyridin-5-yl) pyridin-3-ol] | 456 nM | 1960 nM |  | > 10000 nM | 10.3% | 
Nc1cncc(-c2cnc3[nH]nc(-c4cc5c(-c6ccccn6)cccc5[nH]4)c3c2)c1 [Compound 121, 5-(3-(4-(Pyridin-2-yl)-1H-indol-2-yl)-1H-pyrazolo[3,4-b]pyridin-5-yl) pyridin-3-amine] | 241 nM | 266 nM |  | 726 nM |  | 
c1ccc(-c2cccc3[nH]c(-c4n[nH]c5ncc(-c6cncc(CN7CCCC7)c6)cc45)cc23)nc1 [Compound 131, 3-(4-(Pyridin-2-yl)-1H-indol-2-yl)-5-(5-(pyrrolidin-1-ylmethyl)pyridin-3-yl)-1H-pyrazolo[3,4-b]pyridine] | 970 nM | 1120 nM |  | 1190 nM |  | 
